Laboratory results published in patent publication US4443466A, “4-Benzyl- and 4-benzoyl-substituted imidazole derivatives and use as medicaments” (priority 1980, dated 1984).
Like-named read-outs stand apart in the source and are kept apart here.

Experiments:
rats (blood pressure) = assay: Applicant's experiments on prior-art imidazoles: anti-hypertensive activity / blood pressure in rats; assay type: in vivo, rat; details: for antihypertensive activity: found by our experiments
[1] = system: rats (motility, muscle tone, catalepsia); assay: Tranquilizing activity: Irwin screen in rats; assay type: in vivo, rat
Experimental: (§1) The tranquilizing activity of the compounds was determined by the following methods:
(1) Irwin screen in rats (Irwin S., Psychopharmacologia 13:222, 1968)
Especially sedatory and cataleptic activity and effects on muscle tone are observed.

[2] = Acute toxicity in female NMRI mice, i.v.; details: in vivo, iv, mouse
Experimental: Acute toxicity was determined by using female mice of NMRI-Strain with an age of about 7 months and weighing 30-40 g. The administration of the test compound was i.v.

[3] = system: anesthetized Sprague-Dawley rats (blood pressure, pulse frequency); assay: Blood pressure and pulse frequency in anesthetized normal-weight Sprague-Dawley rats (i.v.); assay type: in vivo, rat (Sprague-Dawley); details: for minimal effective dose: Rattus norvegicus, iv
Experimental: The anti-hypertensive properties of the imidazole derivatives of the present invention have been determined according to the following procedure. Sprague-Dawley rats of normal weight were first anesthetized with urethane. After this, the femoral artery was connected by way of a polyethylene tube with a blood pressure transducer. The test substance was then injected into the femoral vein and the blood pressure and the pulse frequency were registered with a recorder. The minimum doses producing a significant change were found, i.e. ± at least 20% in the case of blood pressure, and ± at least 3% in the case of pulse frequency.

[4] = system: cattle (avoidance, muscle tone); assay: Tranquilizing or taming effect on cattle; assay type: in vivo
Experimental: as §1
(2) Tranquilizing or taming effect on cattle:
The test compounds were administered i.m. to cattle, mostly to heifers (150-200 kg).
The most suitable tranquilized state of an animal includes the ability to retain the upright position and coordination with minimal avoidance reactions to painful stimuli and handling. Thus, a combination of sedative and analgesic potency is required.

[5] = system: spontaneous hypertensive rats (SHR) (blood pressure); assay: Blood pressure in unanesthetized Okamoto-Aoki spontaneous hypertensive rats (SHR), peroral; assay type: in vivo, rat (Okamoto-Aoki SHR)
Experimental: In a further test for anti-hypertensive properties, unanesthetized Okamoto-Aoki spontaneous hypertensive rats (SHR) were used. The test derivative was administered perorally by way of a tube into the stomach. The blood pressure was measured from the tail using an indirect bloodless method.

[6] = system: indomethacin-induced ulcers; assay: Preventive effect on formation of indomethacin-induced ulcers; assay type: in vivo, rat (female Sprague-Dawley); details: for ED50: Rattus norvegicus, ip, 4 h, read-out: ED50 (ulcer prevention)
[7] = as above; assay type: in vivo, rat (female Sprague-Dawley); details: rat, in vivo, iv; LD50 (mouse, i.v.) / ED50 (ulcer); read-out: Therapeutic Index
[8] = system: male mice on a 55° C. hot plate; assay: Hot plate test; assay type: in vivo, mouse (male)
Experimental: The analgesic activity of the compounds of formula (I) was tested in the following manner: […]
Test compounds or saline were given i.p. to male mice. Thirty minutes thereafter, the time for which the mice remained on a 55° C. plate was recorded. The results are expressed as compared to saline.

[9] = 10 μg/kg i.v., anesthetized rats, on an average
[10] = read-out: Blood Pressure Minimum Dose having a significant lowering effect
[11] = read-out: Pulse frequency Minimum Dose having a significant lowering effect

Cc1[nH]cnc1Cc1ccccc1 [4-benzyl-5-methylimidazole]
antihypertensive activity (rats (blood pressure)): no antihypertensive activity
blood pressure change in rats (rats (blood pressure); rats, 1 mg/kg i.v.): the blood pressure rises
blood pressure lowering effect in rats (rats (blood pressure); rats, at any dosage): no blood pressure lowering effect

Cc1cccc(C)c1Cc1cnc[nH]1 [4-(2',6'-dimethylbenzyl)imidazole, 4-(2',6'-Dimethylbenzyl)imidazole]
decrease of motility ([1]; 1.0 mg/kg): ++
loss of muscle tone ([1]; 1.0 mg/kg): +
LD50 [2]: 40 mg/kg
lowering of the blood pressure ([3]; 1 μg/kg i.v., anesthetized rats): detectable lowering of the blood pressure
blood pressure lowering ([3]; 3 μg/kg i.v., anesthetized rats): quite clear
decrease of pulse frequency [3, 9]: 12%
reduction of blood pressure [3, 9]: 30%
therapeutic range ([3]; LD50 40 mg/kg i.v. in mice versus blood pressure lowering doses): very broad
minimal effective dose [3, 10]: 0.003 to 0.1 mg/kg
minimal effective dose [3, 11]: 0.003 mg/kg
duration of the effect ([3]; i.v., anesthetized rats, determination then interrupted): at least 50 minutes
loss of avoidance ([4]; 0.05 mg/kg i.m.): ++
loss of muscle tone ([4]; 0.05 mg/kg i.m.): +
decrease of blood pressure ([5]; awake SHR, 100 μg/kg p.o., four hours after administration): about 20%
decrease of blood pressure ([5]; awake SHR, 300 μg/kg p.o., four hours after administration): 25%
prevention of the formation of ulcers ([6]; 5 μg/kg i.p.): completely prevented the formation of ulcers
ED50 [6]: 0.005 mg/kg
selectivity ratio [7]: 8000

Cc1cccc(Cc2c[nH]cn2)c1C [4-(2',3'-dimethylbenzyl)imidazole, 4-(2',3'-Dimethylbenzyl)imidazole]
Analgesic activity ([8]; 0.6 mg/kg): +
change in vivo at 0.6 mg/kg ([8]; Mus musculus, ip, 0.5 h, 0.6 mg/kg i.p., read-out: increase in HP-time (%)): 200%
decrease of motility ([1]; 1.0 mg/kg): +
loss of muscle tone ([1]; 1.0 mg/kg): +
LD50 [2]: 35 mg/kg
minimal effective dose [3, 10]: 0.01 to 0.1 mg/kg
minimal effective dose ([3]; read-out: Pulse frequency Minimum Dose having a significant increasing effect): 3 to 10 mg/kg
minimal effective dose [3, 11]: 0.01 to 1 mg/kg
loss of avoidance ([4]; 0.1 mg/kg i.m.): ++
ED50 [6]: 0.005 mg/kg
selectivity ratio [7]: 7000

CCc1[nH]cnc1Cc1ccccc1 [5(4)-ethyl-4(5)-benzylimidazole]
antihypertensive activity (rats (blood pressure)): no antihypertensive activity

Clc1ccccc1Cc1c[nH]cn1 [4-(2'-chlorobenzyl)imidazole, 4-(2'-Chlorobenzyl)imidazole]
Analgesic activity ([8]; 1.5 mg/kg): +
change in vivo at 1.5 mg/kg ([8]; Mus musculus, ip, 0.5 h, 1.5 mg/kg i.p., read-out: increase in HP-time (%)): 200%
catalepsia ([1]; 0.25 mg/kg): +
decrease of motility ([1]; 0.25 mg/kg): +
LD50 [2]: 65 mg/kg
loss of avoidance ([4]; 0.1 mg/kg i.m.): +
ED50 [6]: 0.03 mg/kg
selectivity ratio [7]: 2170

Cc1cccc(C)c1C(O)c1c[nH]cn1 (stereo not drawn) [4-[α-(2',6'-Dimethylphenyl)]hydroxymethylimidazole]
LD50 [2]: 125 mg/kg
lowering of blood pressure ([3]; 300 μg/kg i.v.): noticeable
minimal effective dose [3, 10]: 0.1 to 3 mg/kg
minimal effective dose [3, 11]: 0.1 mg/kg
decrease of blood pressure ([5]; awake SHR rats, 3 mg/kg p.o., 3 hours after administration): 20%
prevention of the formation of ulcers ([6]; 0.5 mg/kg): the prevention was partial
prevention of the formation of ulcers ([6]; 5 mg/kg): completely prevented the formation of ulcers
